Experimental data: patent US7132504B2, “Hepatitis C virus inhibitors” (Bristol-Myers Squibb Company, priority 2003, dated 2006)

How the values were obtained:
[1] = target: T1, HCV NS3/4A protease complex (UniProt P27958, C1454S/C1711G, species not given); test: Recombinant HCV NS3/4A protease complex FRET peptide assay (strain not stated); type: biochemical; conditions: NS3/4A protease enzyme assay, read-out: Activity Range IC50
T1 construct: fused on or other part: Three-lysine solubilising tail at the C-terminus of NS4A
Description: (§1) The purpose of this in vitro assay was to measure the inhibition of HCV NS3 protease complexes, derived from the BMS strain, H77 strain or J416S strain, as described below, by compounds of the present invention. This assay provides an indication of how effective compounds of the present invention would be in inhibiting HCV proteolytic activity.
Serum from an HCV-infected patient was obtained from Dr. T. Wright, San Francisco Hospital. An engineered full-length cDNA (compliment deoxyribonucleic acid) template of the HCV genome (BMS strain) was constructed from DNA fragments obtained by reverse transcription-PCR (RT-PCR) of serum RNA (ribonucleic acid) and using primers selected on the basis of homology between other genotype 1a strains. From the determination of the entire genome sequence, a genotype 1a was assigned to the HCV isolate according to the classification of Simmonds et al. (See P Simmonds, K A Rose, S Graham, S W Chan, F McOmish, B C Dow, E A Follett, P L Yap and H Marsden, J. Clin. Microbiol., 31(6), 1493–1503 (1993)). […] The infectious clones, H77 (1a genotype) and J4L6S (1b genotype) were obtained from R. Purcell (NIH) and the sequences are published in Genbank (AAB67036, see Yanagi, M., Purcell, R. H., Emerson, S. U. and Bukh, J. Proc. Natl. Acad. Sci. U.S.A. 94(16), 8738–8743 (1997); AF054247, see Yanagi, M., St Claire, M., Shapiro, M., Emerson, S. U., Purcell, R. H. and Bukh, J, Virology 244 (1), 161–172. (1998)).
The H77 and J4L6S strains were used for production of recombinant NS3/4A protease complexes. DNA encoding the recombinant HCV NS3/4A protease complex (amino acids 1027 to 1711) for these strains were manipulated as described by P. Gallinari et al. (see Gallinari P, Paolini C, Brennan D, Nardi C, Steinkuhler C, De Francesco R. Biochemistry. 38(17):5620–32, (1999)). Briefly, a three-lysine solubilizing tail was added at the 3′-end of the NS4A coding region. The cysteine in the P1 position of the NS4A–NS4B cleavage site (amino acid 1711) was changed to a glycine to avoid the proteolytic cleavage of the lysine tag. Furthermore, a cysteine to serine mutation was introduced by PCR at amino acid position 1454 to prevent the autolytic cleavage in the NS3 helicase domain. The variant DNA fragment was cloned in the pET21b bacterial expression vector (Novagen) and the NS3/4A complex was expressed in Escherichia. coli strain BL21 (DE3) (Invitrogen) following the protocol described by P. Gallinari et al. (see Gallinari P, Brennan D, Nardi C, Brunetti M, Tomei L, Steinkuhler C, De Francesco R., J Virol. 72(8):6758–69 (1998)) with modifications. Briefly, the NS3/4A protease complex expression was induced with 0.5 millimolar (mM) Isopropyl β-D-1-thiogalactopyranoside (IPTG) for 22 hours (h) at 20° C. A typical fermentation (1 Liter (L)) yielded approximately 10 grams (g) of wet cell paste. The cells were resuspended in lysis buffer (10 mL/g) consisting of 25 mM N-(2-Hydroxyethyl)Piperazine-N′-(2-Ethane Sulfonic acid) (HEPES), pH 7.5, 20% glycerol, 500 mM Sodium Chloride (NaCl), 0.5% Triton X-100, 1 microgram/milliliter (“μg/mL”) lysozyme, 5 mM Magnesium Chloride (MgCl2), 1 μg/ml Dnasel, 5 mM β-Mercaptoethanol (βME), Protease inhibitor—Ethylenediamine Tetraacetic acid (EDTA) free (Roche), homogenized and incubated for 20 minutes (min) at 4° C. The homogenate was sonicated and clarified by ultra-centrifugation at 235000 g for 1 h at 4° C. Imidazole was added to the supernatant to a final concentration of 15 mM and the pH adjusted to 8.0. The crude protein extract was loaded on a Nickel—Nitrilotriacetic acid (Ni-NTA) column pre-equilibrated with buffer B (25 mM HEPES, pH 8.0, 20% glycerol, 500 mM NaCl, 0.5% Triton X-100, 15 mM imidazole, 5 mM βME). The sample was loaded at a flow rate of 1 mL/min. The column was washed with 15 column volumes of buffer C (same as buffer B except with 0.2% Triton X-100). The protein was eluted with 5 column volumes of buffer D (same as buffer C except with 200 mM Imidazole). […]

[2] = target: T2, NS3/4A protease complex, H77 strain (Hepatitis C virus genotype 1a, UniProt P27958, C1454S/C1711G); test: Recombinant HCV NS3/4A protease complex FRET peptide assay, H77 strain; type: biochemical, HCV genotype 1a (H77)
T2 construct: DNA encoding the recombinant HCV NS3/4A protease complex (amino acids 1027 to 1711) for these strains; inferred from pET21b vector and Ni-NTA purification; made in house; host or cells: Escherichia coli BL21 (DE3), pET21b
T2 sequence (P27958 1027-1711 C1454S/C1711G, one chain of several): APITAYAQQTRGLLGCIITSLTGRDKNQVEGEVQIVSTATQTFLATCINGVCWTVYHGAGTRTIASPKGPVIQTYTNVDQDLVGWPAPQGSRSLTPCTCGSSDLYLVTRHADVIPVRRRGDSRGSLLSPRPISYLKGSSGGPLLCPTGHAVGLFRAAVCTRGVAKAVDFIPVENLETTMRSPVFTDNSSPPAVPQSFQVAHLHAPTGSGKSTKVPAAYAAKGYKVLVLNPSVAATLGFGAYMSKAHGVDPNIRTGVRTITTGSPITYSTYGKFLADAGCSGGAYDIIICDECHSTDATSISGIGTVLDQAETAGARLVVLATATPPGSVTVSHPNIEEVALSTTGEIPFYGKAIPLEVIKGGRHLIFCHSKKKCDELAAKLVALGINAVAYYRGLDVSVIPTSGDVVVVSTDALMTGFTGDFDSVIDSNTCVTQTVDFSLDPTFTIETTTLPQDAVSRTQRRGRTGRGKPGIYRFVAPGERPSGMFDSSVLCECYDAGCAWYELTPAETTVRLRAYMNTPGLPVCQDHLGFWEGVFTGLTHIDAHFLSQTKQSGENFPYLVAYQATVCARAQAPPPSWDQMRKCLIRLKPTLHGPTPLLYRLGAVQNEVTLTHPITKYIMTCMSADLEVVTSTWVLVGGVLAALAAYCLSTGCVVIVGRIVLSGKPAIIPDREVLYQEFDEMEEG
Description: as §1
(§2) Serum from an HCV-infected patient was obtained from Dr. T. Wright, San Francisco Hospital. An engineered full-length cDNA (compliment deoxyribonucleic acid) template of the HCV genome (BMS strain) was constructed from DNA fragments obtained by reverse transcription-PCR (RT-PCR) of serum RNA (ribonucleic acid) and using primers selected on the basis of homology between other genotype 1a strains. From the determination of the entire genome sequence, a genotype 1a was assigned to the HCV isolate according to the classification of Simmonds et al. (See P Simmonds, K A Rose, S Graham, S W Chan, F McOmish, B C Dow, E A Follett, P L Yap and H Marsden, J. Clin. Microbiol., 31(6), 1493–1503 (1993)). […]

[3] = target: T3, NS3/4A protease complex, J4L6S strain (Hepatitis C virus genotype 1b, UniProt O92972, C1454S/C1711G); test: Recombinant HCV NS3/4A protease complex FRET peptide assay, J4L6S strain; type: biochemical, HCV genotype 1b (J4L6S)
T3 construct: DNA encoding the recombinant HCV NS3/4A protease complex (amino acids 1027 to 1711) for these strains; inferred from pET21b vector and Ni-NTA purification; made in house; host or cells: Escherichia coli BL21 (DE3), pET21b
T3 sequence (O92972 1027-1711 C1454S/C1711G, one chain of several): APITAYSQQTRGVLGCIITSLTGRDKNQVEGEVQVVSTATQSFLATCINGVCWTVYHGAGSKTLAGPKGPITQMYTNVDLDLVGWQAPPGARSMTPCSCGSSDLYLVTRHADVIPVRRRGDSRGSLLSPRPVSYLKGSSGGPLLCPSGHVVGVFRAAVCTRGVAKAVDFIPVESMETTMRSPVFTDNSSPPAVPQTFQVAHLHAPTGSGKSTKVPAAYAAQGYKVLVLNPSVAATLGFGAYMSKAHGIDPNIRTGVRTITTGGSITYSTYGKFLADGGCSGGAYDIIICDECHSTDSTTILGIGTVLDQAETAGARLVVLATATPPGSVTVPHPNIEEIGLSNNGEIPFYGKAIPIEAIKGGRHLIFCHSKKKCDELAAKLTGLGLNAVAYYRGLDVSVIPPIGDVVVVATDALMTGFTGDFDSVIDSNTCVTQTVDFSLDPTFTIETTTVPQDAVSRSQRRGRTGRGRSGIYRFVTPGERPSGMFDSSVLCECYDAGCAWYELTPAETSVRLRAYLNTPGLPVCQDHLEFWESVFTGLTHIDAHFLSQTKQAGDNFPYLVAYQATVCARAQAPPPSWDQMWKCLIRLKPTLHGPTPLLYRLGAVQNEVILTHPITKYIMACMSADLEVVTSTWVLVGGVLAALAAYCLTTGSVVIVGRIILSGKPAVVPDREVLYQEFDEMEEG
Description: as §1, §2

## C=CC1C[C@]1(NC(=O)[C@@H]1C[C@@H](Oc2cc(-c3ccccc3)nc3cc(OC)ccc23)CN1C(=O)[C@@H](NC(=O)OC)C(C)(C)C)C(=O)NS(=O)(=O)N(C)Cc1ccccc1 (stereo partly drawn) [Compound 9]
[1]
  IC50: < 150 nM
[2]
  IC50: 62 nM
[3]
  IC50: 41 nM
